Data published in patent publication US12076306B2, “Prodrugs of fumarates and their use in treating various diseases” (Alkermes Pharma Ireland Limited, priority 2013, dated 2024).
Where a name gives a salt, the structure may show the parent alone.

assay: Aqueous chemical stability, 100 mM phosphate buffer, HPLC (Table 3); assay type: physicochemical; settings: buffer phosphate (100 mM), 37° C., half-lives >360 min estimated from initial slope
Description: Stock solutions of the compounds in acetonitrile or acetonitrile/methanol were prepared at 20 mg/mL and 20 μL, spiked into 3 mL of buffer phosphate (100 mM) and incubated at 37° C. Aliquots (50 μL) were sampled at different time points and diluted 20 fold with ammonium formate (pH 3.5)/acetonitrile. The diluted samples were analyzed by HPLC. The peak areas corresponding to the compounds were plotted against time and the data were fitted to a first-order mono-exponential decay where the rate constant and the half-life were determined (Table 3).

| SMILES | pH 8 (t ½, min) [min] |
| --- | --- |
| COC(=O)/C=C/C(=O)OCCN(CC(=O)O)CC(=O)O [Compound 1, (E)-2,2′-((2-((4-methoxy-4-oxobut-2-enoyl)oxy)ethyl)azanediyl)diacetic acid hydrochloride] | 15 |
| COC(=O)/C=C/C(=O)OCC[N+](C)(C)C [Compound 4, (E)-2-((4-methoxy-4-oxobut-2-enoyl)oxy)-N,N,N-trimethylethanaminium iodide] | 45 |
| COC(=O)/C=C/C(=O)OCCN1CCC(F)(F)CC1 [Compound 5, 2-(4,4-difluoropiperidin-1-yl)ethyl methyl fumarate hydrochloride] | 24 |
| COC(=O)/C=C/C(=O)OC(C)CN(C)C (centres unmarked) [Compound 6, 1-(dimethylamino)propan-2-yl methyl fumarate hydrochloride] | 2.0 |
| COC(=O)/C=C/C(=O)OCCN1CCSCC1 [Compound 7, Methyl (2-thiomorpholinoethyl) fumarate hydrochloride] | 26.0 |
| COC(=O)/C=C/C(=O)OCCNc1ccccc1 [Compound 8, Methyl (2-(phenylamino)ethyl) fumarate hydrochloride] | 36.0 |
| COC(=O)/C=C/C(=O)OCC(C)(C)N(C)C [Compound 9, 2-(dimethylamino)-2-methylpropyl methyl fumarate hydrochloride] | 7.0 |
| COC(=O)/C=C/C(=O)OCCS(C)(=O)=O [Compound 10, Methyl (2-(methylsulfonyl)ethyl) fumarate] | 67.0 |
| COC(=O)/C=C/C(=O)OCCN1CCS(=O)(=O)CC1 [Compound 11, 2-(1,1-dioxidothiomorpholino)ethyl methyl fumarate hydrochloride] | >240 |
| COC(=O)/C=C/C(=O)OCCN1CCCCC1 [Compound 15, Methyl (2-(piperidin-1-yl)ethyl) fumarate hydrochloride] | 3.0 |
| COC(=O)/C=C/C(=O)OCCN1CCOCC1 [Compound 16, Methyl (2-morpholinoethyl) fumarate hydrochloride] | 20.0 |
| COC(=O)/C=C/C(=O)OCCN1CCC2(CC1)OCCO2 [Compound 17, 2-(1,4-dioxa-8-azaspiro[4.5]decan-8-yl)ethyl methyl fumarate hydrochloride] | 11.0 |
| COC(=O)/C=C/C(=O)OCCN1CCCC1 [Compound 18, Methyl (2-(pyrrolidin-1-yl)ethyl) fumarate hydrochloride] | 5.0 |
| COC(=O)/C=C/C(=O)OCCN(C)C [Compound 19, 2-(dimethylamino)ethyl methyl fumarate hydrochloride] | 6.0 |
| CCN(CC)CCOC(=O)/C=C/C(=O)OC [Compound 20, 2-(diethylamino)ethyl methyl fumarate hydrochloride] | 5.0 |
| CCN(CC)C(=O)COC(=O)/C=C/C(=O)OC [Reference Compound A, 2-(diethylamino)-2-oxoethyl methyl fumarate, reference compound] | 120 |

assay: Physical stability in crystalline form by thermogravimetric analysis (TGA); assay type: physicochemical; settings: DMF loss in less than 4 hours
Description: The physical stability of compounds of the present invention and DMF were measured via thermogravimetric analysis (TGA).

| SMILES | weight loss at 60° C. vs time |
| --- | --- |
| COC(=O)/C=C/C(=O)OCCN1C(=O)CCC1=O [Compound 14, 2-(2,5-dioxopyrrolidin-1-yl)ethyl methyl fumarate] | no change |
| COC(=O)/C=C/C(=O)OC [DMF, Dimethyl fumarate, reference compound] | ~100% |

assay: Aqueous chemical stability, 50 mM phosphate buffer pH 8, HPLC-UV (Table 4); assay type: physicochemical; settings: 50 mM buffer phosphate pH 8, 37° C., HPLC UV 211 nm
Description: Stock solutions of the compounds in acetonitrile or acetonitrile/MeOH were prepared at 0.05M. A 0.010 mL aliquot of the stock was spiked into 1 mL of 50 mM buffer phosphate pH 8 and incubated at 37° C. Typically, aliquots (0.010 mL) were sampled at different time points and immediately injected in the HPLC with UV detection (211 nm). The peak areas corresponding to the compounds were plotted against time and the data were fitted to a first-order mono-exponential decay where the rate constant and the half-life were determined from the slope (Table 4).

| SMILES | pH 8 (t ½, min) [min] |
| --- | --- |
| COC(=O)/C=C/C(=O)OCCN(CC(=O)O)CC(=O)O [Compound 1, (E)-2,2′-((2-((4-methoxy-4-oxobut-2-enoyl)oxy)ethyl)azanediyl)diacetic acid hydrochloride] | 15 |
| COC(=O)/C=C/C(=O)OCC[N+](C)(C)C [Compound 4, (E)-2-((4-methoxy-4-oxobut-2-enoyl)oxy)-N,N,N-trimethylethanaminium iodide] | 30 |
| COC(=O)/C=C/C(=O)OCCN1CCC(F)(F)CC1 [Compound 5, 2-(4,4-difluoropiperidin-1-yl)ethyl methyl fumarate hydrochloride] | 24 |
| COC(=O)/C=C/C(=O)OC(C)CN(C)C (centres unmarked) [Compound 6, 1-(dimethylamino)propan-2-yl methyl fumarate hydrochloride] | 2 |
| COC(=O)/C=C/C(=O)OCCN(C)C [Compound 19, 2-(dimethylamino)ethyl methyl fumarate hydrochloride] | 117 |
| COC(=O)/C=C/C(=O)OCCN1C(=O)C2CC2C1=O (centres unmarked) [Compound 22, 2-(2,4-Dioxo-3-azabicyclo[3.1.0]hexan-3-yl)ethyl methyl fumarate] | 144 |
| COC(=O)/C=C/C(=O)OCCN1C(=O)[C@@H](C)[C@@H](C)C1=O [Compound 23, 2-((3R,4S)-3,4-Dimethyl-2,5-dioxopyrrolidin-1-yl)ethyl methyl fumarate] | 186 |
| COC(=O)/C=C/C(=O)OCC[N+]1([O-])CCOCC1 [Compound 26, (E)-4-(2-((4-methoxy-4-oxobut-2-enoyl)oxy)ethyl)morpholine 4-oxide] | 129 |
| COC(=O)/C=C/C(=O)OCCN1C(=O)COCC1=O [Compound 27, 2-(3,5-dioxomorpholino)ethyl methyl fumarate] | 37 |
| COC(=O)/C=C/C(=O)OCCN1CCOC(C)(C)C1 [Compound 28, 2-(2,2-dimethylmorpholino)ethyl methyl fumarate hydrochloride] | <10 |
| COC(=O)/C=C/C(=O)OCCN1CC(C)OC(C)C1 (centres unmarked) [Compound 29, 2-(2,6-dimethylmorpholino)ethyl methyl fumarate hydrochloride] | <10 |
| COC(=O)/C=C/C(=O)OCCN1CCOCC1=O [Compound 30, Methyl (2-(3-oxomorpholino)ethyl) fumarate] | 229 |
| COC(=O)/C=C/C(=O)OCCN1CCOC(=O)C1 [Compound 31, Methyl (2-(2-oxomorpholino)ethyl) fumarate hydrochloride] | 26 |
| COC(=O)/C=C/C(=O)OCCN1CC2CCC(C1)O2 [Compound 32, 2-(8-Oxa-3-azabicyclo[3.2.1]octan-3-yl)ethyl methyl fumarate hydrochloride] | 13 |
| COC(=O)/C=C/C(=O)OCCN1CCOC(CN(C)C)C1 (centres unmarked) [Compound 33, 2-(2-((Dimethylamino)methyl)morpholino)ethyl methyl fumarate hydrochloride] | 115 |
| COC(=O)/C=C/C(=O)OCCN1C(=O)CC(C)(C)C1=O [Compound 37, 2-(3,3-Dimethyl-2,5-dioxopyrrolidin-1-yl)ethyl methyl fumarate] | 182 |
| COC(=O)/C=C/C(=O)OCCN1CCCC1=O [Compound 38, Methyl (2-(2-oxopyrrolidin-1-yl)ethyl) fumarate] | 201 |
| COC(=O)/C=C/C(=O)OCCN1CCOC1=O [Compound 39, Methyl (2-(2-oxooxazolidin-3-yl)ethyl) fumarate] | 183 |
| COC(=O)/C=C/C(=O)OCCN1C(=O)NC(C)(C)C1=O [Compound 40, 2-(4,4-Dimethyl-2,5-dioxoimidazolidin-1-yl)ethyl methyl fumarate] | 203 |
| CCC(=O)N(CCOC(=O)/C=C/C(=O)OC)C(=O)CC [Compound 42, Methyl (2-(N-propionylpropionamido)ethyl) fumarate] | 158 |
| COC(=O)/C=C/C(=O)OCCNC(C)=O [Compound 43, 2-Acetamidoethyl methyl fumarate] | 177.5 |
| COC(=O)/C=C/C(=O)OCCN(C(C)=O)C(C)=O [Compound 44, 2-(N-Acetylacetamido)ethyl methyl fumarate] | 145 |
| COC(=O)/C=C/C(=O)OCCNC(=O)OC(C)(C)C [Compound 48, 2-((tert-butoxycarbonyl)amino)ethyl methyl fumarate] | 220 |
| COC(=O)/C=C/C12COC(C)(CO1)CO2 [Compound 130, (E)-Methyl 3-(4-methyl-2,5,7-trioxabicyclo[2.2.2]octan-1-yl)acrylate] | 1010 |
| C#CCOC(=O)/C=C/C(=O)OC [Compound 131, Methyl prop-2-yn-1-yl fumarate] | 96 |
| COC(=O)/C=C/C(=O)OCCCN1C(=O)CCC1=O [Compound 133, 3-(2,5-Dioxopyrrolidin-1-yl)propyl methyl fumarate] | 246 |
